How the values were obtained:
[1] = system: feruloyl-CoA:monolignol transferase (FMT); test: Feruloyl-CoA:monolignol transferase (FMT) enzymatic assay, substrate test with UPLC detection of product; format: biochemical, Angelica sinensis; conditions: purified recombinant FMT; for product formed from CoA thioester as acyl donor: coniferyl alcohol as acyl acceptor (FIGS. 2, 6, 7); for FMT activity with monolignol as acyl acceptor: feruloyl-CoA as acyl donor (FIGS. 2, 4, 5)
Procedure: The feruloyl-CoA, p-coumaroyl-CoA, and caffeoyl-CoA substrates used in the FMT assay were enzymatically synthesized using the tobacco 4-coumarate-CoA-ligase (4CL) with a c-terminal HIS tag in pCRT7/CT TOPO, provided by Eran Pichersky. Following a method modified from Beuerle and Pichersky (Anal. Biochem. 302(2): 305-12 (2001)) 3.3 mg of ferulic acid, coumaric acid or caffeic acid, 2 mg coenzyme A, and 6.9 mg ATP were added to 50 mM Tris-hydrochloride pH 8 and 2.5 mM magnesium chloride in a final volume of 10 ml. The reaction was started by adding 0.25 mg 4CL, protein purified as described by the method of Beurerle and Pichershy. After a five-hour incubation at room temperature, additional 6.9 mg ATP, 2 mg coenzyme A, and 0.25 mg purified 4CL were added and the reaction was incubated overnight. The CoA esters were purified on an SPE cartridge as described in Beuerle and Pichersky (2001).
(§1) The FMT activity assay contained 100 mM MOPS pH 6.8, 1 mM dithiothreitol (DTT), 1 mM feruloyl-CoA, 1 mM coniferyl alcohol, 3.9 μg of purified FMT protein and deionized water to a volume of 50 μL. After a 30-minute incubation, 1 μL of 10 M hydrochloric acid was added to stop the reaction. Because the product synthesized in the reaction, coniferyl ferulate (CAFA), is insoluble, 50 μL of methanol was added to solubilize the CAFA. Prior to UPLC, protein and insoluble material were removed by filtering through an Amicon Ultracel 10K membrane filter (Millipore). The flow-through was analyzed using an Acquity Ultra Performance LC with an Acquity UPLC BEH C18 1.7 μm 2.1×100 mm column and the Acquity Console and Empower 2 Software, all from Waters Corporation. The solvents used in this method were solvent A, 0.1% trifluoroacetic acid, and solvent B, 100% acetonitrile. Samples were analyzed using the following gradient conditions, 13% B, for 5 minutes, 1 minute linear gradient to 42% B, held for 4 minutes, 1 minute linear gradient to 100% B, held for 1 minutes and 3 minutes at 13% B with a flow rate of 0.3 ml/minute. This method was then used to analyze a 10 μL injection of each assay reaction; standards for each of the substrates along with chemically synthesized CAFA were used to determine retention times for each compound.
Purified recombinant enzyme was assayed for FMT activity using a reaction mixture containing 2 mM coniferyl alcohol, […], 100 mM HEPES pH 7.4 and 1 mM DTT. The second most abundant BAHD acyltransferase gene when incubated with Coniferyl alcohol and feruloyl-CoA produced a compound with the retention time of authentic coniferyl ferulate (CAFA) (FIG. 2). […] The addition of methanol to 50% after stopping the enzyme with acid was required to analyze the product by UPLC. The insolubility of the product made partial purification easy as the product was separated from the substrates by centrifugation.
This partial purified product was analyzed by NMR. The identity of the product as CAFA was confirmed by ^1H-NMR (FIG. 3). The enzyme was tested with p-coumaryl alcohol (FIG. 4) and sinapyl alcohol (FIG. 5) in addition to coniferyl alcohol (FIG. 2). The enzyme is active with all three monolignols, i.e., p-coumaryl alcohol, coniferyl alcohol and sinapyl alcohol. The enzyme was tested with p-coumaroyl-CoA (FIG. 6) and caffeoyl-CoA (FIG. 7) as well as feruloyl-CoA (FIG. 2).

[2] = Solubility of the enzyme product in the aqueous assay mixture; format: physicochemical; conditions: FMT reaction product; methanol to 50% needed to solubilize
Procedure: as §1, with “compound. […]” for “compound.”

| SMILES | product formed from CoA thioester as acyl donor [1] | FMT activity with monolignol as acyl acceptor [1] | also measured |
| --- | --- | --- | --- |
| COc1cc(/C=C/C(=O)SCCNC(=O)CCNC(=O)[C@H](O)C(C)(C)COP(=O)(O)OP(=O)(O)OC[C@H]2O[C@@H](n3cnc4c(N)ncnc43)[C@H](O)[C@@H]2OP(=O)(O)O)ccc1O [feruloyl-CoA] | substantial product |  |  |
| COc1cc(/C=C/CO)cc(OC)c1O [sinapyl alcohol] |  | active |  |
| COc1cc(/C=C/COC(=O)/C=C/c2ccc(O)c(OC)c2)ccc1O [coniferyl ferulate] |  |  | solubility in water [2]: mostly insoluble in water |
| COc1cc(/C=C/CO)ccc1O [coniferyl alcohol] |  | active |  |
| OC/C=C/c1ccc(O)cc1 [p-coumaryl alcohol] |  | active |  |
| CC(C)(COP(=O)(O)OP(=O)(O)OC[C@H]1O[C@@H](n2cnc3c(N)ncnc32)[C@H](O)[C@@H]1OP(=O)(O)O)[C@@H](O)C(=O)NCCC(=O)NCCSC(=O)/C=C/c1ccc(O)cc1 [p-coumaroyl-CoA] | very little product |  |  |
| CC(C)(COP(=O)(O)OP(=O)(O)OC[C@H]1O[C@@H](n2cnc3c(N)ncnc32)[C@H](O)[C@@H]1OP(=O)(O)O)[C@@H](O)C(=O)NCCC(=O)NCCSC(=O)/C=C/c1ccc(O)c(O)c1 [caffeoyl-CoA] | very little product |  |  |
